In the supplement of paper PMC4862054:

Experiments:
Details in all cases: incubation time: 72 h
MDA-MB-231 [1] = assay: normalised response (% of control), CellTox Green; higher = less cell death (100 = DMSO, 0 = benzethonium chloride kill control)
How it was run: (§1)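 Plates were normalised with 0.1 % DMSO as 100 and a positive kill control as 0. Breast cancer cell lines in 20 µl suspension had been seeded into 384-well plates with compound at 5 concentrations in 10-fold steps over a compound-specific 10,000-fold range, incubated 72 h, and read for CellTox Green fluorescence (485/520 nm) followed by CellTiter-Glo luminescence. Each value is the normalised signal at a single concentration.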

MFM-223 [2] = assay: as above
How it was run: as §1

MCF-10A [3] = assay: as above
How it was run: as §1

Hs578T [4] = assay: as above
How it was run: as §1

MDA-MB-453 [5] = assay: as above
How it was run: as §1

HDQ-P1 [6] = assay: as above
How it was run: as §1

DU-4475 [7] = assay: as above
How it was run: as §1

HCC1599 [8] = assay: as above
How it was run: as §1

BT-474 [9] = assay: as above
How it was run: as §1

MDA-MB-436 [10] = assay: as above
How it was run: as §1

CAL-120 [11] = assay: as above
How it was run: as §1

BT-549 [12] = assay: as above
How it was run: as §1

CAL-85-1 [13] = assay: as above
How it was run: as §1

HCC1143 [14] = assay: as above
How it was run: as §1

MDA-MB-468 [15] = assay: as above
How it was run: as §1

HCC1937 [16] = assay: as above
How it was run: as §1

CAL-51 [17] = assay: as above
How it was run: as §1

CAL-148 [18] = assay: as above
How it was run: as §1

MDA-MB-231 [19] = assay: normalised response (% of control), CellTiter-Glo; higher = more viable cells (100 = DMSO, 0 = benzethonium chloride kill control)
How it was run: as §1

MFM-223 [20] = assay: as above
How it was run: as §1

MCF-10A [21] = assay: as above
How it was run: as §1

Hs578T [22] = assay: as above
How it was run: as §1

MDA-MB-453 [23] = assay: as above
How it was run: as §1

HDQ-P1 [24] = assay: as above
How it was run: as §1

SK-BR-3 [25] = assay: as above
How it was run: as §1

DU-4475 [26] = assay: as above
How it was run: as §1

HCC1599 [27] = assay: as above
How it was run: as §1

BT-474 [28] = assay: as above
How it was run: as §1

MDA-MB-436 [29] = assay: as above
How it was run: as §1

CAL-120 [30] = assay: as above
How it was run: as §1

BT-549 [31] = assay: as above
How it was run: as §1

CAL-85-1 [32] = assay: as above
How it was run: as §1

HCC1143 [33] = assay: as above
How it was run: as §1

MDA-MB-468 [34] = assay: as above
How it was run: as §1

HCC1937 [35] = assay: as above
How it was run: as §1

CAL-51 [36] = assay: as above
How it was run: as §1

CAL-148 [37] = assay: as above
How it was run: as §1

MDA-MB-231 [38] = assay: normalised response (% of control), CellTiter-Glo; higher = more viable cells (100 = DMSO, 0 = benzethonium chloride kill control); remark: listed apart in the source
Description: (§2)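 DSRT, 72 h incubation, CellTox Green / CellTiter-Glo readout. Signal is normalised to DMSO and benzethonium chloride controls. Value is the normalised response at the highest dose.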

MFM-223 [39] = assay: as above; remark: listed apart in the source
Description: as §2

MCF-10A [40] = assay: as above; remark: listed apart in the source
Description: as §2

Hs578T [41] = assay: as above; remark: listed apart in the source
Description: as §2

MDA-MB-453 [42] = assay: as above; remark: listed apart in the source
Description: as §2

HDQ-P1 [43] = assay: as above; remark: listed apart in the source
Description: as §2

SK-BR-3 [44] = assay: as above; remark: listed apart in the source
Description: as §2

DU-4475 [45] = assay: as above; remark: listed apart in the source
Description: as §2

HCC1599 [46] = assay: as above; remark: listed apart in the source
Description: as §2

BT-474 [47] = assay: as above; remark: listed apart in the source
Description: as §2

MDA-MB-436 [48] = assay: as above; remark: listed apart in the source
Description: as §2

CAL-120 [49] = assay: as above; remark: listed apart in the source
Description: as §2

BT-549 [50] = assay: as above; remark: listed apart in the source
Description: as §2

CAL-85-1 [51] = assay: as above; remark: listed apart in the source
Description: as §2

HCC1143 [52] = assay: as above; remark: listed apart in the source
Description: as §2

MDA-MB-468 [53] = assay: as above; remark: listed apart in the source
Description: as §2

HCC1937 [54] = assay: as above; remark: listed apart in the source
Description: as §2

CAL-51 [55] = assay: as above; remark: listed apart in the source
Description: as §2

CAL-148 [56] = assay: as above; remark: listed apart in the source
Description: as §2

Structure (SMILES)	normalised response (MDA-MB-231 [1]) [%]	normalised response (MFM-223 [2]) [%]	normalised response (MCF-10A [3]) [%]	normalised response (Hs578T [4]) [%]	normalised response (MDA-MB-453 [5]) [%]	normalised response (HDQ-P1 [6]) [%]	normalised response (DU-4475 [7]) [%]	normalised response (HCC1599 [8]) [%]	normalised response (BT-474 [9]) [%]	normalised response (MDA-MB-436 [10]) [%]	normalised response (CAL-120 [11]) [%]	normalised response (BT-549 [12]) [%]	normalised response (CAL-85-1 [13]) [%]	normalised response (HCC1143 [14]) [%]	normalised response (MDA-MB-468 [15]) [%]	normalised response (HCC1937 [16]) [%]	normalised response (CAL-51 [17]) [%]	normalised response (CAL-148 [18]) [%]	normalised response (MDA-MB-231 [19]) [%]	normalised response (MFM-223 [20]) [%]	also measured
O=C(Cc1ccc(-c2ccc(OCCN3CCOCC3)cc2)cn1)NCc1ccccc1 [KX2-391] (100 nM)	51.3	75.7	55.3	-25.9	101	80.7	95.7	93.7	85.1	76.9	87.3	78.5	30.9	109	-39.4	98.5	35.6	65.5	64.4	63.1	normalised response (MCF-10A [21]): 61%; normalised response (Hs578T [22]): 29.9%; normalised response (MDA-MB-453 [23]): 72.7%; normalised response (HDQ-P1 [24]): 72.6%; normalised response (SK-BR-3 [25]): 19.5%; normalised response (DU-4475 [26]): 49.4%; normalised response (HCC1599 [27]): 32.3%; normalised response (BT-474 [28]): 66%; normalised response (MDA-MB-436 [29]): 39.5%; normalised response (CAL-120 [30]): 67.8%; normalised response (BT-549 [31]): 50.1%; normalised response (CAL-85-1 [32]): 31.8%; normalised response (HCC1143 [33]): 44.7%; normalised response (MDA-MB-468 [34]): 44.6%; normalised response (HCC1937 [35]): 73.2%; normalised response (CAL-51 [36]): 32.2%; normalised response (CAL-148 [37]): 40.6%
CCN(CC)CCCC(C)Nc1c2ccc(Cl)cc2nc2ccc(OC)cc12 (configuration not stated) [Mepacrine] (500 nM)	99.1	96.9	85.1	63.5	104	85.1	108	93.8	103	82.7	-33	103	104	109	109	111	66.9	74.7	103	97.2	normalised response (MCF-10A [21]): 105%; normalised response (Hs578T [22]): 98.7%; normalised response (MDA-MB-453 [23]): 101%; normalised response (HDQ-P1 [24]): 104%; normalised response (SK-BR-3 [25]): 90.8%; normalised response (DU-4475 [26]): 99.8%; normalised response (HCC1599 [27]): 101%; normalised response (BT-474 [28]): 98.9%; normalised response (MDA-MB-436 [29]): 106%; normalised response (CAL-120 [30]): 44.1%; normalised response (BT-549 [31]): 113%; normalised response (CAL-85-1 [32]): 103%; normalised response (HCC1143 [33]): 104%; normalised response (MDA-MB-468 [34]): 93.1%; normalised response (HCC1937 [35]): 98.4%; normalised response (CAL-51 [36]): 64%; normalised response (CAL-148 [37]): 86.1%
O=C(O)C(=O)O.[NH-][C@@H]1CCCC[C@H]1[NH-].[Pt+2] [Oxaliplatin] (10000 nM)	93.5	93	–	107	98.6	–	96.8	98.3	96.6	62	99.1	108	128	68.5	124	92.8	79.2	–	–	–	normalised response (MDA-MB-231 [38]): 91.5%; normalised response (MFM-223 [39]): 86.9%; normalised response (MCF-10A [40]): 86.4%; normalised response (Hs578T [41]): 97%; normalised response (MDA-MB-453 [42]): 89.5%; normalised response (HDQ-P1 [43]): 102%; normalised response (SK-BR-3 [44]): 91.9%; normalised response (DU-4475 [45]): 86.5%; normalised response (HCC1599 [46]): 97.3%; normalised response (BT-474 [47]): 100%; normalised response (MDA-MB-436 [48]): 98.4%; normalised response (CAL-120 [49]): 106%; normalised response (BT-549 [50]): 101%; normalised response (CAL-85-1 [51]): 102%; normalised response (HCC1143 [52]): 99.8%; normalised response (MDA-MB-468 [53]): 97.2%; normalised response (HCC1937 [54]): 98.4%; normalised response (CAL-51 [55]): 91.5%; normalised response (CAL-148 [56]): 85.5%
C=CCc1cccc(/C=N/NC(=O)CN2CCN(Cc3ccccc3)CC2)c1O [PAC-1] (100 nM)	116	98.7	75.2	84.3	107	100	102	99.4	103	83.5	106	101	99.7	110	79.1	105	98.2	107	107	102	normalised response (MCF-10A [21]): 111%; normalised response (Hs578T [22]): 104%; normalised response (MDA-MB-453 [23]): 102%; normalised response (HDQ-P1 [24]): 99.6%; normalised response (SK-BR-3 [25]): 108%; normalised response (DU-4475 [26]): 105%; normalised response (HCC1599 [27]): 118%; normalised response (BT-474 [28]): 102%; normalised response (MDA-MB-436 [29]): 99.3%; normalised response (CAL-120 [30]): 103%; normalised response (BT-549 [31]): 104%; normalised response (CAL-85-1 [32]): 103%; normalised response (HCC1143 [33]): 101%; normalised response (MDA-MB-468 [34]): 99.4%; normalised response (HCC1937 [35]): 97.1%; normalised response (CAL-51 [36]): 91.8%; normalised response (CAL-148 [37]): 103%
CNC(=O)c1cc(Oc2ccc(NC(=O)Nc3cc(C(C)(C)C)nn3-c3ccc4ncccc4c3)c(F)c2)ccn1 [Rebastinib] (10 nM)	105	103	95.4	106	98.2	57	101	98.2	98.3	85	101	107	113	86.8	70.1	94.3	101	84.8	92	96.8	normalised response (MCF-10A [21]): 114%; normalised response (Hs578T [22]): 104%; normalised response (MDA-MB-453 [23]): 97.1%; normalised response (HDQ-P1 [24]): 107%; normalised response (SK-BR-3 [25]): 101%; normalised response (DU-4475 [26]): 109%; normalised response (HCC1599 [27]): 98.3%; normalised response (BT-474 [28]): 102%; normalised response (MDA-MB-436 [29]): 106%; normalised response (CAL-120 [30]): 105%; normalised response (BT-549 [31]): 109%; normalised response (CAL-85-1 [32]): 98.7%; normalised response (HCC1143 [33]): 104%; normalised response (MDA-MB-468 [34]): 94.7%; normalised response (HCC1937 [35]): 102%; normalised response (CAL-51 [36]): 90.6%; normalised response (CAL-148 [37]): 105%
